In assay [1] the target is T1, Ulex europaeus agglutinin I (UEA I) (Ulex europaeus, UniProt P22972).
T1 construct: native plant lectin, fluorescein-labeled (Vector Laboratories)
T1 sequence (P22972 1-243): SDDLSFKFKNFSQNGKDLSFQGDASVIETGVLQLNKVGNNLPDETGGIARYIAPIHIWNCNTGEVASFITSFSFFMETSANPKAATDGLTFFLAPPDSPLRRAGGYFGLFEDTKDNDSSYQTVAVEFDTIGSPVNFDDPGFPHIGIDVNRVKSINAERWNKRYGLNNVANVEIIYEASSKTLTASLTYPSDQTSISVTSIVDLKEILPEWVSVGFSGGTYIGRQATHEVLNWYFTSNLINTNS
Nature of the assay: ELISA-type competitive inhibition, fluorescein-labeled lectin on immobilized porcine stomach mucin. To be noted: 10 mM HEPES, 150 mM NaCl, 0.1 mM CaCl2, pH 7.5, 1 h. Format: binding.

The target of assay [2] is T2, Erythrina cristagalli lectin (ECL) (Erythrina crista-galli, UniProt P83410).
T2 construct: native plant lectin, fluorescein-labeled (Vector Laboratories); dimeric
T2 sequence (P83410 1-239): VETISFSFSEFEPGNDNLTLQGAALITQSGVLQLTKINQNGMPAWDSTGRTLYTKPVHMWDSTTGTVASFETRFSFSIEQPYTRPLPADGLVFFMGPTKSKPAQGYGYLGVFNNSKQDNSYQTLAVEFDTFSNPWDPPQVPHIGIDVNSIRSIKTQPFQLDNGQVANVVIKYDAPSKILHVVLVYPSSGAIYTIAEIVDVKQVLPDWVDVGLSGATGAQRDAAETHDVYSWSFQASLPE
Put plainly: ELISA-type competitive inhibition, fluorescein-labeled lectin on immobilized asialofetuin. The conditions noted are these: 10 mM HEPES, 150 mM NaCl, 0.1 mM CaCl2, pH 7.5, 1 h. It counts as binding.

Regarding `C[C@@H]1OC(O)[C@@H](O)[C@H](O)[C@@H]1O` (some centres unmarked) [fucose], the IC50 entry in assay [1] is reported as “The IC50 value of fucose for UEA I binding is three-times”.
For the compound `OC[C@H]1O[C@@H](O[C@H]2[C@H](O)[C@@H](O)C(O)O[C@@H]2CO)[C@H](O)[C@@H](O)[C@H]1O` (some centres unmarked) [lactose], the IC50 result in assay [2] is “free lactose is a potent inhibitor for ECL with IC50 in the same range”.

The values are drawn from publication PMC6572176, “Functional Glyco-Nanogels for Multivalent Interaction with Lectins” (Molecules, 2019).
